In patent US9492471B2, “Methods of treating a disease or disorder associated with Bruton'S Tyrosine Kinase” (Celgene Avilomics Research, Inc., priority 2013, dated 2016):
Like-named read-outs stand apart in the source and are kept apart here.

What was measured:
Assay in all cases: HotSpot kinase profiling
Format in all cases: biochemical
LATS2 = target: T1, LATS2 (Homo sapiens, UniProt Q9NRM7)
T1 construct: purchased Reaction Biology Corp
T1 sequence (Q9NRM7 1-1088): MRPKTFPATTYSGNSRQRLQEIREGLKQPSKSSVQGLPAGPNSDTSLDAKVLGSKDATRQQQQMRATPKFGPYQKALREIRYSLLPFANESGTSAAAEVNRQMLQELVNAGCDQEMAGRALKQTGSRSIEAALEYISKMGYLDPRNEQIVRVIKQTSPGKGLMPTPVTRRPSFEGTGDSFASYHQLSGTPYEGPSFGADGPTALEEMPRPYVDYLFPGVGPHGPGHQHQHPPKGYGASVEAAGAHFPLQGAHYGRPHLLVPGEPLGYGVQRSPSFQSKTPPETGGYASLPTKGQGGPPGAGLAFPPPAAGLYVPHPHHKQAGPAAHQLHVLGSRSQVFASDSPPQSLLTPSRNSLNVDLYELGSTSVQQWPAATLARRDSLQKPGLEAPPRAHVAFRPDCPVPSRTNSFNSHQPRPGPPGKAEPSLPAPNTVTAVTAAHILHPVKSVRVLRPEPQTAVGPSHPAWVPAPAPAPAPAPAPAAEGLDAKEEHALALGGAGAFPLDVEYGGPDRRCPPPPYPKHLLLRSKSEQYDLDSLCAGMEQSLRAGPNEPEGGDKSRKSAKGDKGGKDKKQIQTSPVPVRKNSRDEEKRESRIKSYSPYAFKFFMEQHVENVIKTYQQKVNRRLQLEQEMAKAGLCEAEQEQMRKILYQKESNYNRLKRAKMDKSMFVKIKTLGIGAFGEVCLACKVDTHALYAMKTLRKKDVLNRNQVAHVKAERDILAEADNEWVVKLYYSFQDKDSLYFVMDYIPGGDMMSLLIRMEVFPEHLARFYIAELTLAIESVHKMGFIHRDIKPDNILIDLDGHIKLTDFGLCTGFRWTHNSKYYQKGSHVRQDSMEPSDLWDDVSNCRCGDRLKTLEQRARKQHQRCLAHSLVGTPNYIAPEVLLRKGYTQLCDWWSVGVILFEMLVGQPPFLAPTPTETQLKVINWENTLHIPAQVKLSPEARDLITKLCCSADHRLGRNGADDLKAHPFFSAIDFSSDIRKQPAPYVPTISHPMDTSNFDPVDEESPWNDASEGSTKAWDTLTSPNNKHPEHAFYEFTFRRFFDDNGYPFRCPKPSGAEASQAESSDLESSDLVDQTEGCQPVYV
Summary of the method: (§1)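 P81 filtration radiometric readout; 2 h incubation at room temperature; 0.1% phosphoric acid wash; DMSO negative control; % inhibition, mean of replicate runs.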

CDC7/DBF4 = target: T2, CDC7/DBF4 (Homo sapiens, UniProt O00311)
T2 construct: purchased Reaction Biology Corp
T2 sequence (O00311 whole entry): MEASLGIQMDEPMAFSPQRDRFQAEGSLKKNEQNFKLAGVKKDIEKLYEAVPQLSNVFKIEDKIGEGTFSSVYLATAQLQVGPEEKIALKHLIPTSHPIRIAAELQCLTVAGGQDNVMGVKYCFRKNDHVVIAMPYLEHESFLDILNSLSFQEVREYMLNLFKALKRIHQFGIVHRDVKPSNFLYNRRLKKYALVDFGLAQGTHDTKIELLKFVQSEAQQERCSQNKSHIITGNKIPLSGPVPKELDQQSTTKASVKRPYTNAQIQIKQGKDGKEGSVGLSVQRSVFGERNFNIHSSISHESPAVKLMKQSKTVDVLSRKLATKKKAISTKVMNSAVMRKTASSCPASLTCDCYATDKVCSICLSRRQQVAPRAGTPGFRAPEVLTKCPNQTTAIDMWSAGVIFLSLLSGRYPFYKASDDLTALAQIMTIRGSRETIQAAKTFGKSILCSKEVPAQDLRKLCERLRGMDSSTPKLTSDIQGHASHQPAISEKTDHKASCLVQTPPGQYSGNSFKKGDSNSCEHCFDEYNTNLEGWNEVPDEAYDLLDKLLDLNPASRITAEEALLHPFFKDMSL
T2 sequence (Q9UBU7 whole entry partner): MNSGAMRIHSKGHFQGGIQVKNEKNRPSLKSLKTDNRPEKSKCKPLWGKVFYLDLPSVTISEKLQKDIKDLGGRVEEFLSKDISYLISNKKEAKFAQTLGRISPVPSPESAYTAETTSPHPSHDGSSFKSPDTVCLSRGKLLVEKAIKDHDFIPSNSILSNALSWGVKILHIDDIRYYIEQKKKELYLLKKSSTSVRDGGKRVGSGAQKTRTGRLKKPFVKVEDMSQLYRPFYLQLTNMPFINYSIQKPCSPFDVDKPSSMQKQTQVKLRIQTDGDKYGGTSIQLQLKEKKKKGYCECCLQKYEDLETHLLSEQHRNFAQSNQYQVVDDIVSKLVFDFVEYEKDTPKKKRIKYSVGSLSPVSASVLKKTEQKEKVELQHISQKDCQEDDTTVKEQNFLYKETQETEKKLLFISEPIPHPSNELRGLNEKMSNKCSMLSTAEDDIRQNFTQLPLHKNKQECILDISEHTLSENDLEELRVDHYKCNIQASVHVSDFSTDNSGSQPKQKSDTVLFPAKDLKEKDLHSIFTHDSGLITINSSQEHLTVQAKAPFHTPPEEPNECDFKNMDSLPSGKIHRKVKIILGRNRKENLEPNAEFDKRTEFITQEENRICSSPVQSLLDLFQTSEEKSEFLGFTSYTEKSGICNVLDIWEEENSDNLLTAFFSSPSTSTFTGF
Summary of the method: as §1

EPHA8 = target: T3, EPHA8 (Homo sapiens, UniProt P29322)
T3 construct: purchased Reaction Biology Corp
T3 sequence (P29322 28-1005): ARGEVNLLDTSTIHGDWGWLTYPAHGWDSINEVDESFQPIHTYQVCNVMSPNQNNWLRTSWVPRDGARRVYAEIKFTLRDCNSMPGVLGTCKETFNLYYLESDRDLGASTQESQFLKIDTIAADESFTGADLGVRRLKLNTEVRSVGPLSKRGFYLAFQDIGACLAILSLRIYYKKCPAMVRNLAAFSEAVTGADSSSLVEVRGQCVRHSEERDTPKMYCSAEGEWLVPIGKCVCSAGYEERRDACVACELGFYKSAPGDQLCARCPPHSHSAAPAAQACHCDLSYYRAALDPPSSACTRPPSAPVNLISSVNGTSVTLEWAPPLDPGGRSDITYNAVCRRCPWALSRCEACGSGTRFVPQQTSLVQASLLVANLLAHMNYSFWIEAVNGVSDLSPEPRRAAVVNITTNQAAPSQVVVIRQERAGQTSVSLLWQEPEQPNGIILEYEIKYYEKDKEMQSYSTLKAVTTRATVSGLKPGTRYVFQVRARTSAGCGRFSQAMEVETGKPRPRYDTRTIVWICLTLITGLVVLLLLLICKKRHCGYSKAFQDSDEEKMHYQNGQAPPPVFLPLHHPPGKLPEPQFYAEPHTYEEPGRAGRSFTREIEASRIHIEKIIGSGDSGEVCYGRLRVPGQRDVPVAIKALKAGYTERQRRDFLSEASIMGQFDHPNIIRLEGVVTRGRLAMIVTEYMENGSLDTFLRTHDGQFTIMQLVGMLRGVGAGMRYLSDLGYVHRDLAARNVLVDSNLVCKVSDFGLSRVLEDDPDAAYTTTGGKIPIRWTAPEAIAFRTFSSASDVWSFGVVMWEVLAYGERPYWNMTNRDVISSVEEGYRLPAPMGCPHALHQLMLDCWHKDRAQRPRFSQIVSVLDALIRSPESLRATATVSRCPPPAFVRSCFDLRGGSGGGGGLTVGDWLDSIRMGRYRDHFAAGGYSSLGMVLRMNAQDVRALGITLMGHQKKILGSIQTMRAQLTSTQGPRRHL
Summary of the method: as §1

GSK3b = target: T4, GSK3b (Homo sapiens, UniProt P49841)
T4 construct: purchased Reaction Biology Corp
T4 sequence (P49841 whole entry): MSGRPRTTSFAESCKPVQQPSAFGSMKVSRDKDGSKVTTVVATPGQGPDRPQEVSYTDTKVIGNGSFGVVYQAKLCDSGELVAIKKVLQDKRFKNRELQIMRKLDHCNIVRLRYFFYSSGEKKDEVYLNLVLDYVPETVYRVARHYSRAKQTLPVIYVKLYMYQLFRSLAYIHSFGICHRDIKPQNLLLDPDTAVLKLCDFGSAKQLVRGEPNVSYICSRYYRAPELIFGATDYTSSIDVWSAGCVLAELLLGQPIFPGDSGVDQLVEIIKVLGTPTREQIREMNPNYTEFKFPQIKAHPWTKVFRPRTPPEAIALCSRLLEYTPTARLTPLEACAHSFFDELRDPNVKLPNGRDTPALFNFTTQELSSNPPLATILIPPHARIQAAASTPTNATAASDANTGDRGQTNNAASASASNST
Summary of the method: as §1

YES/YES1 = target: T5, YES/YES1 (Homo sapiens, UniProt P07947)
T5 construct: purchased Reaction Biology Corp
T5 sequence (P07947 whole entry): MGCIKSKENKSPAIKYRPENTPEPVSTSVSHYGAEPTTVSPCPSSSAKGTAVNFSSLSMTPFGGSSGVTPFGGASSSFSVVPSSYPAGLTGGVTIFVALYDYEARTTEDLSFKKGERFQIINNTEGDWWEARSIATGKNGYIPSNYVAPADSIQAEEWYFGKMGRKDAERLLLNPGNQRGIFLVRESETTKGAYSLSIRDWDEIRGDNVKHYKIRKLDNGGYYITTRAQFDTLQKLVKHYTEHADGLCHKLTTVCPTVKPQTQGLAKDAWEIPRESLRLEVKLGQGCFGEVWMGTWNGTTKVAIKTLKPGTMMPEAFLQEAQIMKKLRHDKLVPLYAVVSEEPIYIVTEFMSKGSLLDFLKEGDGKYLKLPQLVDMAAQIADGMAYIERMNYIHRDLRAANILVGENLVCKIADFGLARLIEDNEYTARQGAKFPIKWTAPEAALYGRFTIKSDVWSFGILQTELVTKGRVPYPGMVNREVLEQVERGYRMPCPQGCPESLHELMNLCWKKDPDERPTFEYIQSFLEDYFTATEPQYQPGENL
Summary of the method: as §1

PAK1 = target: T6, PAK1 (Homo sapiens, UniProt Q13153)
T6 construct: purchased Reaction Biology Corp
T6 sequence (Q13153 whole entry): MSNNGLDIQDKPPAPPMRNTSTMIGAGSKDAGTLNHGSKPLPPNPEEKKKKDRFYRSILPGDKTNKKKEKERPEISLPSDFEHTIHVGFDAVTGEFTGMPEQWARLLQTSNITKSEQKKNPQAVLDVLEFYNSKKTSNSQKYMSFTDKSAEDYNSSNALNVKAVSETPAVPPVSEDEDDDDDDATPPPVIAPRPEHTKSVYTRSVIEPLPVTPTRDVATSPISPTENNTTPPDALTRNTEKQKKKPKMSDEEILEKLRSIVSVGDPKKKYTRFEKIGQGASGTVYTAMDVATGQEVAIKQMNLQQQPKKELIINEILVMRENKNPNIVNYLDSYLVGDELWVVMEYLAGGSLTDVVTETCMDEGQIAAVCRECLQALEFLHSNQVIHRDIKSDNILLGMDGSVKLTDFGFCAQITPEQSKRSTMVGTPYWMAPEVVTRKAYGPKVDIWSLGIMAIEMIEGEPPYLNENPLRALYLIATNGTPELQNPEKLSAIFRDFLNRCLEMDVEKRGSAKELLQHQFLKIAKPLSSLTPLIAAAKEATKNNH
Summary of the method: as §1

[1] = read-out: % Enzyme Activity (relative to DMSO controls) Run 1
[2] = read-out: % Enzyme Activity (relative to DMSO controls) Run 2

C=CC(=O)Nc1cccc(Nc2nc(Nc3ccc(OCCOC)c(F)c3)ncc2F)c1 [Compound 2]
inhibition at 3 µM (LATS2): 10.2%
remaining activity at 3 µM (LATS2; [1]): 88.4%
remaining activity at 3 µM (LATS2; [2]): 91.2%
inhibition at 3 µM (CDC7/DBF4): -2.02%
remaining activity at 3 µM (CDC7/DBF4; [1]): 100%
remaining activity at 3 µM (CDC7/DBF4; [2]): 104%
inhibition at 3 µM (EPHA8): 5.98%
remaining activity at 3 µM (EPHA8; [1]): 94.2%
remaining activity at 3 µM (EPHA8; [2]): 93.8%
inhibition at 3 µM (GSK3b): -22.2%
remaining activity at 3 µM (GSK3b; [1]): 122%
remaining activity at 3 µM (GSK3b; [2]): 123%
inhibition at 3 µM (YES/YES1): 81.5%
remaining activity at 3 µM (YES/YES1; [1]): 18.7%
remaining activity at 3 µM (YES/YES1; [2]): 18.3%
inhibition at 3 µM (PAK1): 2.58%
remaining activity at 3 µM (PAK1; [1]): 96.3%
remaining activity at 3 µM (PAK1; [2]): 98.6%
